According to patent EP0334218A1, “Solid, especially suited for oral and rectal adiministration, etofenamate-containing preparations” (HEXAL-PHARMA GMBH & CO. KG, priority 1988, dated 1989):
Values after ≈ are worked out from the molar mass of the structure shown.

Experiment: Solubility behaviour (dissolved etofenamate over time) in distilled water
Type: physicochemical
Settings: 22° C, read-out: Etofenamat gelöst
Method: Vergleich des Löslichkeitsverhaltens von reinem Etofenamat und zwei Etofenamat-Cyclodextrinzubereitungen gemäß der Erfindung:
Die Untersuchungen wurden in destilliertem Wasser bei 22° C durchgeführt und erbrachten die folgenden Ergebnisse: […]

solubility at 1 min (1 min): 0.009 mg/mL (≈ 24.4 µM) | solubility at 0.05 h (3 min): 0.011 mg/mL (≈ 29.8 µM) | solubility at 5 min (5 min): 0.011 mg/mL (≈ 29.8 µM) | solubility at 10 min (10 min): 0.011 mg/mL (≈ 29.8 µM) | solubility at 0.25 h (15 min): 0.013 mg/mL (≈ 35.2 µM) | solubility at 0.5 h (30 min): 0.013 mg/mL (≈ 35.2 µM) | solubility at 0.75 h (45 min): 0.011 mg/mL (≈ 29.8 µM) | solubility at 1 h (60 min): 0.012 mg/mL (≈ 32.5 µM)
Compound: O=C(OCCOCCO)c1ccccc1Nc1cccc(C(F)(F)F)c1 [Etofenamat, 2-(2-Hydroxyethoxy)-ethyl-N-(α,α,α-trifluoro-m-tolyl)-anthranilat]
